From PubChem BioAssay AID1259407 (Chemical Carcinogenesis Research Information System (CCRIS), 2018) come the findings set out here.

Calls of active or inactive are those of the source. No rule for the calls is given here.

The test system of this series is CCRIS mutagenicity, Ames/micronucleus/aberration tests. The series can be described thus: CCRIS mutagenicity studies.

`N#C/C(N)=C(/N)C#N`: the mutagenic call reads like this: (Test System: AMES SALMONELLA TYPHIMURIUM, Strain/Indicator: TA97, Metabolic Activation: HAMSTER, LIVER, S-9, AROCLOR 1254 (10%), Method: PREINCUBATION) “inactive; negative”; (Test System: AMES SALMONELLA TYPHIMURIUM, Strain/Indicator: TA97, Metabolic Activation: HAMSTER, LIVER, S-9, AROCLOR 1254 (30%), Method: PREINCUBATION) “inactive; negative”; (Test System: AMES SALMONELLA TYPHIMURIUM, Strain/Indicator: TA97, Metabolic Activation: NONE, Method: PREINCUBATION) “inactive; negative”; (Test System: AMES SALMONELLA TYPHIMURIUM, Strain/Indicator: TA97, Metabolic Activation: RAT, LIVER, S-9, AROCLOR 1254 (10%), Method: PREINCUBATION) “inactive; negative”; (Test System: AMES SALMONELLA TYPHIMURIUM, Strain/Indicator: TA97, Metabolic Activation: RAT, LIVER, S-9, AROCLOR 1254 (30%), Method: PREINCUBATION) “inactive; negative”; (Test System: AMES SALMONELLA TYPHIMURIUM, Strain/Indicator: TA98, Metabolic Activation: HAMSTER, LIVER, S-9, AROCLOR 1254 (10%), Method: PREINCUBATION) “inactive; negative”. The mutagenic call is, setting by setting: (Test System: AMES SALMONELLA TYPHIMURIUM, Strain/Indicator: TA98, Metabolic Activation: HAMSTER, LIVER, S-9, AROCLOR 1254 (30%), Method: PREINCUBATION) “inactive; negative”; (Test System: AMES SALMONELLA TYPHIMURIUM, Strain/Indicator: TA98, Metabolic Activation: NONE, Method: PREINCUBATION) “inactive; negative”; (Test System: AMES SALMONELLA TYPHIMURIUM, Strain/Indicator: TA98, Metabolic Activation: RAT, LIVER, S-9, AROCLOR 1254 (10%), Method: PREINCUBATION) “inactive; negative”; (Test System: AMES SALMONELLA TYPHIMURIUM, Strain/Indicator: TA98, Metabolic Activation: RAT, LIVER, S-9, AROCLOR 1254 (30%), Method: PREINCUBATION) “inactive; negative”; (Test System: AMES SALMONELLA TYPHIMURIUM, Strain/Indicator: TA100, Metabolic Activation: HAMSTER, LIVER, S-9, AROCLOR 1254 (10%), Method: PREINCUBATION) “inactive; negative”; (Test System: AMES SALMONELLA TYPHIMURIUM, Strain/Indicator: TA100, Metabolic Activation: HAMSTER, LIVER, S-9, AROCLOR 1254 (30%), Method: PREINCUBATION) “inactive; negative”. The mutagenic call (Test System: AMES SALMONELLA TYPHIMURIUM, Strain/Indicator: TA100, Metabolic Activation: NONE, Method: PREINCUBATION) was “inactive; negative”; the mutagenic call (Test System: AMES SALMONELLA TYPHIMURIUM, Strain/Indicator: TA100, Metabolic Activation: RAT, LIVER, S-9, AROCLOR 1254 (10%), Method: PREINCUBATION) is “inactive; negative”; the mutagenic call (Test System: AMES SALMONELLA TYPHIMURIUM, Strain/Indicator: TA100, Metabolic Activation: RAT, LIVER, S-9, AROCLOR 1254 (30%), Method: PREINCUBATION) was “inactive; negative”; the mutagenic call (Test System: AMES SALMONELLA TYPHIMURIUM, Strain/Indicator: TA1535, Metabolic Activation: HAMSTER, LIVER, S-9, AROCLOR 1254 (10%), Method: PREINCUBATION) was “inactive; negative”; the mutagenic call (Test System: AMES SALMONELLA TYPHIMURIUM, Strain/Indicator: TA1535, Metabolic Activation: HAMSTER, LIVER, S-9, AROCLOR 1254 (30%), Method: PREINCUBATION) was “inactive; negative”; the mutagenic call (Test System: AMES SALMONELLA TYPHIMURIUM, Strain/Indicator: TA1535, Metabolic Activation: NONE, Method: PREINCUBATION) is “inactive; negative”. Also, the mutagenic call (Test System: AMES SALMONELLA TYPHIMURIUM, Strain/Indicator: TA1535, Metabolic Activation: RAT, LIVER, S-9, AROCLOR 1254 (10%), Method: PREINCUBATION) is “inactive; negative”; the mutagenic call (Test System: AMES SALMONELLA TYPHIMURIUM, Strain/Indicator: TA1535, Metabolic Activation: RAT, LIVER, S-9, AROCLOR 1254 (30%), Method: PREINCUBATION) was “inactive; negative”; the mutagenic call (Test System: MOUSE LYMPHOMA, Strain/Indicator: L5178Y (TK+/TK-), Metabolic Activation: NONE, Method: SUSPENSION/PLATE) was “active; positive. reevaluation of results: positive”; the mutagenic call (Test System: MOUSE LYMPHOMA, Strain/Indicator: L5178Y (TK+/TK-), Metabolic Activation: RAT, LIVER, S-9, AROCLOR 1254, Method: SUSPENSION/PLATE) was “active; positive. reevaluation of results: positive”.

Regarding `C[n+]1ccc(-c2ccccn2)cc1`, the mutagenic call (Test System: AMES SALMONELLA TYPHIMURIUM, Strain/Indicator: TA97, Metabolic Activation: RAT, LIVER, S-9, PHENOBARBITAL, Method: STANDARD PLATE) was “inactive; negative”; the mutagenic call (Test System: AMES SALMONELLA TYPHIMURIUM, Strain/Indicator: TA98, Metabolic Activation: RAT, LIVER, S-9, PHENOBARBITAL, Method: STANDARD PLATE) was “active; positive”; the mutagenic call (Test System: AMES SALMONELLA TYPHIMURIUM, Strain/Indicator: TA100, Metabolic Activation: RAT, LIVER, S-9, PHENOBARBITAL, Method: STANDARD PLATE) was “inactive; negative”; the mutagenic call (Test System: AMES SALMONELLA TYPHIMURIUM, Strain/Indicator: TA1535, Metabolic Activation: RAT, LIVER, S-9, PHENOBARBITAL, Method: STANDARD PLATE) was “inactive; negative”; the mutagenic call (Test System: AMES SALMONELLA TYPHIMURIUM, Strain/Indicator: TA1537, Metabolic Activation: RAT, LIVER, S-9, PHENOBARBITAL, Method: STANDARD PLATE) was “inactive; negative”; the mutagenic call (Test System: AMES SALMONELLA TYPHIMURIUM, Strain/Indicator: TA1538, Metabolic Activation: RAT, LIVER, S-9, PHENOBARBITAL, Method: STANDARD PLATE) was “inactive; negative”.
